Tests used:
[1] = tested on: horny layer oxidized protein; test: Agent-induced inhibition of sodium hypochlorite-induced increase in horny layer oxidized protein (tape-stripped horny layer, fluorescein-5-thiosemicarbazide labeling); type: biochemical, human; details: abdomen tape horny layer, 0.2 mM sodium hypochlorite plus agent, 37° C. for 18 hours; concentration inhibiting increase to median between hypochlorite alone and water alone; read-out: 50% inhibition concentration
Description: Adhesive tape is attached to the skin, such as an unexposed part of the abdomen, of a healthy individual, and immediately stripped off for non-invasive sampling of the outer layer of the horny layer. The tape which was attached to the horny layer is incubated in an aqueous solution containing a mixture of the oxidizing agent and a fixed concentration of the candidate agent. […] The inhibiting effect of the agent on oxidized protein increase may also be evaluated based on the level of oxidized protein in the horny layer specimen obtained after simultaneously applying the oxidizing agent onto human skin.
(§1) Transparent adhesive tape was attached to the abdomen of a healthy individual and immediately stripped off, to non-invasively obtain the outer layer of the horny layer. The tape attached to the horny layer was incubated in an aqueous solution comprising a mixture of 0.2 mM sodium hypochlorite and a fixed concentration of the agent, at 37° C. for 18 hours. After incubation was complete, the mixture was thoroughly washed with phosphate-buffered saline (PBS) and then reacted with a 100 mM MES-Na buffer solution (pH 5.5) containing 20 μM fluorescein-5-thiosemicarbazide (Molecular Probes Co.) at room temperature for 1 hour. After completion of the reaction, thorough washing was carried out with phosphate-buffered saline (PBS) and a fluorescent microscope was used for observation.

[2] = tested on: horny layer oxidized protein; test: Increase in horny layer oxidized protein due to aldehyde (tape-stripped horny layer); type: biochemical, human; details: 1 mM aqueous acrolein, room temperature, 18 hours, abdomen tape horny layer
Description: as §1, with “in a 1 mM” for “in an”, “aqueous acrolein” for “aqueous”, “solution” for “solution comprising a mixture of 0.2 mM sodium hypochlorite and a fixed concentration of the agent,”, “at room temperature” for “at 37° C.”

[3] = tested on: horny layer oxidized protein; test: Increase in horny layer oxidized protein due to unsaturated fatty acid coated on forearm; type: in vivo, human; details: 40 μL/cm^2 of 30% linoleic acid-ethanol solution, 3 consecutive days
Description: (§2) After coating the forearm of a healthy individual with 40 μL/cm^2 of a 30% linoleic acid-ethanol solution for 3 consecutive days, transparent adhesive tape was attached to the irradiated site and immediately stripped off, to non-invasively obtain the outer layer of the horny layer. The tape attached to the horny layer was reacted with a 100 mM MES-Na buffer solution (pH 5.5) containing 20 μM fluorescein-5-thiosemicarbazide (Molecular Probes Co.) at room temperature for 1 hour. After completion of the reaction, thorough washing was carried out with phosphate-buffered saline (PBS), and then a fluorescent microscope was used for observation.

[4] = tested on: horny layer oxidized protein; test: Increase in horny layer oxidized protein due to sodium hypochlorite and unsaturated fatty acids (tape-stripped horny layer); type: biochemical, human; details: 0.2 mM aqueous sodium hypochlorite, 37° C., 18 hours, abdomen tape horny layer
Description: Transparent adhesive tape was attached to the abdomen of a healthy individual and immediately stripped off, to non-invasively obtain the outer layer of the horny layer. The tape attached to the horny layer was coated with 200 μg/cm^2 of unsaturated fatty acids (linoleic acid, oleic acid and palmitoleic acid), and then incubated in a 0.2 mM aqueous sodium hypochlorite solution at 37° C. for 18 hours. After incubation was complete, the mixture was thoroughly washed with phosphate-buffered saline (PBS) and then reacted with a 100 mM MES-Na buffer solution (pH 5.5) containing 20 μM fluorescein-5-thiosemicarbazide (Molecular Probes Co.) at room temperature for 1 hour. After completion of the reaction, thorough washing was carried out with phosphate-buffered saline (PBS) and a fluorescent microscope was used for observation.

[5] = tested on: horny layer oxidized protein; test: Increase in horny layer oxidized protein due to sodium hypochlorite coated on forearm; type: in vivo, human; details: 2 μL/cm^2 of 20 mM aqueous solution, 5 consecutive days
Description: as §2, with “2” for “40”, “20 mM aqueous sodium hypochlorite” for “30% linoleic acid-ethanol”, “5” for “3”, “attached” for “attached to the irradiated site”

SMILES	IC50 [1] [µM]	further results
NCCS(=O)O [2-Aminoethanesulfinic acid]	86	–
NCCS(=O)(O)=S [2-Aminoethanethiosulfonic acid]	63	–
O=C1O[C@H]([C@@H](O)CO)C(O)=C1O[C@H]1O[C@H](CO)[C@@H](O)[C@H](O)[C@H]1O [2-O-α-D-Glucopyranosyl-L-ascorbic acid]	190	–
CCOC1=C(O)C(=O)O[C@@H]1[C@@H](O)CO [3-O-Ethylascorbic acid]	140	–
O=C1O[C@H]([C@@H](O)CO)C(O)=C1O [Ascorbic acid]	210	–
N[C@@H](CCC(=O)N[C@@H](CS)C(=O)NCC(=O)O)C(=O)O [Glutathione]	8	–
O=C1O[C@H]([C@@H](O)CO)C(O)=C1OP(=O)(O)O [Magnesium ascorbate phosphate ester]	< 125	–
Cc1c(C)c2c(c(C)c1OP(=O)(O)OC1=C(O)C(C(O)CO)OC1=O)CCC(C)(CCCC(C)CCCC(C)CCCC(C)C)O2 [Potassium α-tocopherol-2-L-ascorbate phosphate diester]	< 125	–
O=S(O)S(=O)(=O)O [Sodium pyrosulfite]	< 125	–
C=CC=O [acrolein]	–	change in oxidized protein after incubation with acrolein [2]: increase in oxidized protein
CCCCC/C=C\C/C=C\CCCCCCCC(=O)O [linoleic acid]	–	change in oxidized protein after coating skin with linoleic acid [3]: increase in oxidized protein
OCl [sodium hypochlorite]	–	change in oxidized protein after incubation with sodium hypochlorite, compared to incubation with water [4]: increase in oxidized protein; change in oxidized protein after coating skin with sodium hypochlorite [5]: increase in oxidized protein
Cc1c(C)c2c(c(C)c1O)CC[C@@](C)(CCC[C@H](C)CCC[C@H](C)CCCC(C)C)O2 [α-Tocopherol]	220	–
